ChEMBL document CHEMBL4507283, “Data for DCP probe BI-1935” (2021)

What was measured:
[1] = target: Insulin receptor-related protein (Homo sapiens) (UniProt P14616); details: Compound concentration 1000.0 nM
[2] = target: Atypical kinase COQ8B, mitochondrial (Homo sapiens) (UniProt Q96D53); details: Compound concentration 1000.0 nM
[3] = target: Neutrophil elastase (Homo sapiens) (UniProt P08246); test: ELASTASEPMN Eurofins-Panlabs selectivity data (BI); details: Compound concentration 10.0 uM
[4] = target: Calcium/calmodulin-dependent protein kinase type 1B (Homo sapiens) (UniProt Q6P2M8); details: Compound concentration 1000.0 nM
[5] = target: Voltage-dependent L-type calcium channel subunit alpha-1C (DHP site) (Rattus norvegicus, UniProt P22002); test: CA+/DHPSI/RA Eurofins-Panlabs selectivity data (BI); details: compound concentration 10 uM, read-out: % Ctrl
[6] = target: Mitogen-activated protein kinase kinase kinase 19 (Homo sapiens) (UniProt Q56UN5); details: Compound concentration 1000.0 nM
[7] = target: Tyrosine-protein kinase Lyn (Homo sapiens) (UniProt P07948); details: Compound concentration 1000.0 nM
[8] = target: Serine/threonine-protein kinase 38 (Homo sapiens) (UniProt Q15208); details: Compound concentration 1000.0 nM
[9] = target: Serine/threonine-protein kinase TAO1 (Homo sapiens) (UniProt Q7L7X3); details: Compound concentration 1000.0 nM
[10] = tested on: Epidermal growth factor receptor (Homo sapiens), P00533 [UNDEFINED MUTATION]; details: Compound concentration 1000.0 nM
[11] = target: Dual specificity mitogen-activated protein kinase kinase 3 (Homo sapiens) (UniProt P46734); details: Compound concentration 1000.0 nM
Sequence of Dual specificity mitogen-activated protein kinase kinase 3 (Homo sapiens) (P46734 whole entry): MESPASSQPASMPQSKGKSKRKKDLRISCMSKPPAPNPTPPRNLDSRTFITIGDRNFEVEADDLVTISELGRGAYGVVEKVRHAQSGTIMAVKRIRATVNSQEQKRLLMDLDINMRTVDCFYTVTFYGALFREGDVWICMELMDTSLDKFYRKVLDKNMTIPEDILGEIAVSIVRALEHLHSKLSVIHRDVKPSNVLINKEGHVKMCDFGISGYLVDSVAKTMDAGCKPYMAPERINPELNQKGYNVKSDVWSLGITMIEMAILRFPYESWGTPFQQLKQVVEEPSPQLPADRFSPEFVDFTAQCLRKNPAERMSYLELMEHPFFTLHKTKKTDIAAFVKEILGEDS

[12] = target: Serine/threonine-protein kinase tousled-like 1 (Homo sapiens) (UniProt Q9UKI8); details: Compound concentration 1000.0 nM
[13] = target: Cyclin-dependent kinase 3 (Homo sapiens) (UniProt Q00526); details: Compound concentration 1000.0 nM
Sequence of Cyclin-dependent kinase 3 (Homo sapiens) (Q00526 whole entry, looked up): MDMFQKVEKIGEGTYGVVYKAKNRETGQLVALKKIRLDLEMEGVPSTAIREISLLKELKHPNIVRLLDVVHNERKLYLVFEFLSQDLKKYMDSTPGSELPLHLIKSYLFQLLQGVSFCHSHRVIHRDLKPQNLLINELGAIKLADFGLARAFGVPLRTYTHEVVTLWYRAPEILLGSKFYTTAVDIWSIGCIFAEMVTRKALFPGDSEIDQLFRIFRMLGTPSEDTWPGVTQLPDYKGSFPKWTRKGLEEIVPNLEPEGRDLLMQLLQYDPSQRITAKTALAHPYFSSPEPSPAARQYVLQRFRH

[14] = target: RAC-alpha serine/threonine-protein kinase (Homo sapiens) (UniProt P31749); details: Compound concentration 1000.0 nM
[15] = target: Myosin-IIIb (Homo sapiens) (UniProt Q8WXR4); details: Compound concentration 1000.0 nM
Sequence of Myosin-IIIb (Homo sapiens) (Q8WXR4 whole entry): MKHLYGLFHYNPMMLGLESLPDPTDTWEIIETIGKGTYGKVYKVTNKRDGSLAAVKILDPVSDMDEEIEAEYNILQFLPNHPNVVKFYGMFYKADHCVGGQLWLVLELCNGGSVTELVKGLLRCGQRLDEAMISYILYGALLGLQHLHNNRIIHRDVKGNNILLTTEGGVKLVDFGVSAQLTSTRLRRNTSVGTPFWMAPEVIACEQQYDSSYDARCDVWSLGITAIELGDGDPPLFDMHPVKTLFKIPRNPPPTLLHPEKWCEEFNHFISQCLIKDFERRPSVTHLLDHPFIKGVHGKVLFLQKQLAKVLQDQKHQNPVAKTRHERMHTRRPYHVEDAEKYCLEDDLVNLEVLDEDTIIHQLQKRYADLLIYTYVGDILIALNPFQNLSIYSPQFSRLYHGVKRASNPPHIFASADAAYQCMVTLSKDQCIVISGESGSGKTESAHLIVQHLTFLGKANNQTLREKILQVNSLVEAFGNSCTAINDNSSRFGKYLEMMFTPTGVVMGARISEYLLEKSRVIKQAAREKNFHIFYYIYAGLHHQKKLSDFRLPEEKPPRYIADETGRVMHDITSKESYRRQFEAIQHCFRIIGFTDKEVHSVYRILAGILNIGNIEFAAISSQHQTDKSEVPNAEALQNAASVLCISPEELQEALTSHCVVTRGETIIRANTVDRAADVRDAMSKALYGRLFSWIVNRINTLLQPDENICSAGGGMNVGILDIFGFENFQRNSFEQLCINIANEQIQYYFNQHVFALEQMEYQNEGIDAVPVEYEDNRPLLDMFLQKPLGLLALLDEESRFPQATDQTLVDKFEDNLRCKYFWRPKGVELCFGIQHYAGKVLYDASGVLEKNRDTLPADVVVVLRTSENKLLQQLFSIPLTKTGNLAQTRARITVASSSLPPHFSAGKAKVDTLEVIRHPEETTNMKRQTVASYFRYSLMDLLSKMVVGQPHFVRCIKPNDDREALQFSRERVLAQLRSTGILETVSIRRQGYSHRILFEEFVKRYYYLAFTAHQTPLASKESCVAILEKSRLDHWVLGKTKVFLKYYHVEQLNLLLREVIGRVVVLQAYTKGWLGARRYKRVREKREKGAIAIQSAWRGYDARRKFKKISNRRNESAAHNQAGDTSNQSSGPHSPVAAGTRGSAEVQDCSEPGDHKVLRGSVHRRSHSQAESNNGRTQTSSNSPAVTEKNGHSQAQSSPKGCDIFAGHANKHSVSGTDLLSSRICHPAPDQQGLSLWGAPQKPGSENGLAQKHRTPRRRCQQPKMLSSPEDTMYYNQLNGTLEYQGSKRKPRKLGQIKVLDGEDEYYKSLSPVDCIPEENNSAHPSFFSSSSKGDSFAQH

[16] = target: G protein-coupled receptor kinase 3 (Homo sapiens) (UniProt P35626); details: Compound concentration 1000.0 nM
[17] = target: Phospholipase A2 (Sus scrofa) (UniProt A0A8D1VEY7); test: PLA2 Eurofins-Panlabs selectivity data (BI); details: Compound concentration 10.0 uM
Sequence of Phospholipase A2 (Sus scrofa) (A0A8D1VEY7 as listed by the source): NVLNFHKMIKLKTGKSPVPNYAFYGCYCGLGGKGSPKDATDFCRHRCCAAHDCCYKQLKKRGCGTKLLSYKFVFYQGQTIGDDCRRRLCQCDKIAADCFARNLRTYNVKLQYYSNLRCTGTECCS

[18] = target: Receptor-interacting serine/threonine-protein kinase 4 (Homo sapiens) (UniProt P57078); details: Compound concentration 1000.0 nM
[19] = target: Ribosomal protein S6 kinase alpha-1 (Homo sapiens) (UniProt Q15418); details: Compound concentration 1000.0 nM
[20] = target: Rho-associated protein kinase 2 (Homo sapiens) (UniProt O75116); details: Compound concentration 1000.0 nM
Sequence of Rho-associated protein kinase 2 (Homo sapiens) (O75116 whole entry, looked up): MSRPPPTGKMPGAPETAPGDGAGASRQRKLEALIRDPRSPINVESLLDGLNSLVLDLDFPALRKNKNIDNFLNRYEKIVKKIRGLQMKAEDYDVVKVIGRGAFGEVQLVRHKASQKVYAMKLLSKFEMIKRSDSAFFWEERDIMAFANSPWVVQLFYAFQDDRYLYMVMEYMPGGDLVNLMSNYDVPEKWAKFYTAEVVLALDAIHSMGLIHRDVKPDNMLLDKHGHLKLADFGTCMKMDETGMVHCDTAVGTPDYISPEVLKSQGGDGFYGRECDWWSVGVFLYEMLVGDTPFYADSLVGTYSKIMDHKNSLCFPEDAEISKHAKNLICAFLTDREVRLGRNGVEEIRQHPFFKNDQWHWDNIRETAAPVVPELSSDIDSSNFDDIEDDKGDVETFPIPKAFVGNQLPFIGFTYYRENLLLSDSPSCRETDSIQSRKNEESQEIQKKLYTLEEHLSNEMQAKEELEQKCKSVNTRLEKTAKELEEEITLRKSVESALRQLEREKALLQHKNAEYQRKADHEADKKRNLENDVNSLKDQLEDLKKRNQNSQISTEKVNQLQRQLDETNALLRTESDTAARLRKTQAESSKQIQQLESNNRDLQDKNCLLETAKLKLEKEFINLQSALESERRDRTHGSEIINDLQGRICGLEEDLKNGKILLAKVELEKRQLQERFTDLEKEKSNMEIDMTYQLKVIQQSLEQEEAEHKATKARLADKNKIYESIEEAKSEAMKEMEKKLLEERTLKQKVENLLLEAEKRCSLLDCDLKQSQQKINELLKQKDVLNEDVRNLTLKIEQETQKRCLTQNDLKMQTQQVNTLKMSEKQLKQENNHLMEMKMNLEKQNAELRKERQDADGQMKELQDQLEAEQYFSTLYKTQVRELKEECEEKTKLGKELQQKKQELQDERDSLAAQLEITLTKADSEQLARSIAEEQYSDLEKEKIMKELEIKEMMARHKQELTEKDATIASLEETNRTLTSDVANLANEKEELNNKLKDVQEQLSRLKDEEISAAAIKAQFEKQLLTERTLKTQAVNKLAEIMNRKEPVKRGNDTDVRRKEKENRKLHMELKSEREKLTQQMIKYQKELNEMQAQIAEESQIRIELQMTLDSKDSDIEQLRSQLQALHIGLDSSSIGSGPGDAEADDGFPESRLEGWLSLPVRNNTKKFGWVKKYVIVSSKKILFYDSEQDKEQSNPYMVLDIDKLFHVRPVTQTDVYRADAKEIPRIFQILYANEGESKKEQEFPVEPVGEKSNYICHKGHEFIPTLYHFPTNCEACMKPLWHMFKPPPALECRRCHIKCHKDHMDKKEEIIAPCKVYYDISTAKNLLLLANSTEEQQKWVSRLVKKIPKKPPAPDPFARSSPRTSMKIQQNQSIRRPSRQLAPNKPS

[21] = tested on: Tyrosine-protein kinase ABL1 (Homo sapiens), P00519 [F317L]; details: Compound concentration 1000.0 nM
[22] = target: Cyclin-dependent kinase 5 (Homo sapiens) (UniProt Q00535); details: Compound concentration 1000.0 nM
[23] = target: Cyclin-dependent kinase 16 (Homo sapiens) (UniProt Q00536); details: Compound concentration 1000.0 nM
[24] = target: Cyclin-dependent kinase 8 (Homo sapiens) (UniProt P49336); details: Compound concentration 1000.0 nM
[25] = target: Phosphatidylinositol 3-kinase catalytic subunit type 3 (Homo sapiens) (UniProt Q8NEB9); details: Compound concentration 1000.0 nM
[26] = tested on: Phosphatidylinositol 4,5-bisphosphate 3-kinase catalytic subunit alpha isoform (Homo sapiens), P42336 [E545K]; details: Compound concentration 1000.0 nM
Sequence of Phosphatidylinositol 4,5-bisphosphate 3-kinase catalytic subunit alpha isoform (Homo sapiens), P42336 [E545K] (P42336 whole entry E545K, canonical isoform): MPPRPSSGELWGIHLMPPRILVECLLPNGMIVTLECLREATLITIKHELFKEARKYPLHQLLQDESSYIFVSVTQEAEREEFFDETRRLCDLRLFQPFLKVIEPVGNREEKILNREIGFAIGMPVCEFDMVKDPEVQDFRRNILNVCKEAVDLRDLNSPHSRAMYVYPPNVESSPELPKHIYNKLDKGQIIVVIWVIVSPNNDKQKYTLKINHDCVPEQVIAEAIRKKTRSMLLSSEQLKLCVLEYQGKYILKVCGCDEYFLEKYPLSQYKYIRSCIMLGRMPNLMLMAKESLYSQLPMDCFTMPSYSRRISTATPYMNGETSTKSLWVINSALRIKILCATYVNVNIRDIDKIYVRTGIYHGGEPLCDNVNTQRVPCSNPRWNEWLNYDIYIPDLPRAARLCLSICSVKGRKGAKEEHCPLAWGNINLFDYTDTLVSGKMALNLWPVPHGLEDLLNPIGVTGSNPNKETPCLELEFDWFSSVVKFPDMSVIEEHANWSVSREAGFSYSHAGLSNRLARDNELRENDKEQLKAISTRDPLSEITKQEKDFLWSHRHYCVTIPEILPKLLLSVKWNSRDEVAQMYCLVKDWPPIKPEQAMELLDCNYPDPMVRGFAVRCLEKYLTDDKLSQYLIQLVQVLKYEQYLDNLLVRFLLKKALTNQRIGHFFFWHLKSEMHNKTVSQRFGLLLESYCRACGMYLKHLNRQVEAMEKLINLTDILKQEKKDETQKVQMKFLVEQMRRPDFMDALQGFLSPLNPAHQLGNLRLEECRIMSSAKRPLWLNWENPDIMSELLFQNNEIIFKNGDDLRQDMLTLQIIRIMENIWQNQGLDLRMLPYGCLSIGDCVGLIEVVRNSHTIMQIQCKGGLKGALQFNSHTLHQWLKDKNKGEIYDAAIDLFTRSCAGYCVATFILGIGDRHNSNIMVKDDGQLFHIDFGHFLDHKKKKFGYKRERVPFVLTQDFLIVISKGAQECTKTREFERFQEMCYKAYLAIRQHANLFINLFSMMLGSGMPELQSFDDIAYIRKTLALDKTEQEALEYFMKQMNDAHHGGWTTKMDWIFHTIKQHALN

[27] = target: Cyclin-dependent kinase-like 1 (Homo sapiens) (UniProt Q00532); details: Compound concentration 1000.0 nM
[28] = target: Mitogen-activated protein kinase kinase kinase 4 (Homo sapiens) (UniProt Q9Y6R4); details: Compound concentration 1000.0 nM
[29] = target: Serine/threonine-protein kinase PAK 5 (Homo sapiens) (UniProt Q9P286); details: Compound concentration 1000.0 nM
[30] = target: Receptor tyrosine-protein kinase erbB-2 (Homo sapiens) (UniProt P04626); details: Compound concentration 1000.0 nM
[31] = target: Dual specificity tyrosine-phosphorylation-regulated kinase 1A (Homo sapiens) (UniProt Q13627); details: Compound concentration 1000.0 nM
[32] = target: Mitogen-activated protein kinase kinase kinase kinase 3 (Homo sapiens) (UniProt Q8IVH8); details: Compound concentration 1000.0 nM
[33] = target: Glycogen synthase kinase-3 alpha (Homo sapiens) (UniProt P49840); details: Compound concentration 1000.0 nM
Sequence of Glycogen synthase kinase-3 alpha (Homo sapiens) (P49840 2-483 limits assumed): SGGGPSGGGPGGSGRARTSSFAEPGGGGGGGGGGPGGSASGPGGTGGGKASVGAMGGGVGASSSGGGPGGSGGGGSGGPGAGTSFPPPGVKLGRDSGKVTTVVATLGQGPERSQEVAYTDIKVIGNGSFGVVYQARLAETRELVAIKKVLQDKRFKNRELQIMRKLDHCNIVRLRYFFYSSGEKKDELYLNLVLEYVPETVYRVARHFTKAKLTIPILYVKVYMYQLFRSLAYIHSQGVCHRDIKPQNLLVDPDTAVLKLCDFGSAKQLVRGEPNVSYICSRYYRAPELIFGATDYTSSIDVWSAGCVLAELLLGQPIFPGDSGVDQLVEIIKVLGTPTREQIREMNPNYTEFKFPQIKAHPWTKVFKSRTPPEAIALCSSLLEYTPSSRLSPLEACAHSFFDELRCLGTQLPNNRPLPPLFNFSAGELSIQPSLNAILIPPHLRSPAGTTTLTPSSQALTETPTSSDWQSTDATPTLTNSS

[34] = target: Serine/threonine-protein kinase TNNI3K (Homo sapiens) (UniProt Q59H18); details: Compound concentration 1000.0 nM
[35] = target: Cyclin-dependent kinase-like 3 (Homo sapiens) (UniProt Q8IVW4); details: Compound concentration 1000.0 nM
[36] = target: Mitogen-activated protein kinase 13 (Homo sapiens) (UniProt O15264); details: Compound concentration 1000.0 nM
[37] = target: Tyrosine-protein kinase Srms (Homo sapiens) (UniProt Q9H3Y6); details: Compound concentration 1000.0 nM
[38] = target: Ribosomal protein S6 kinase alpha-3 (Homo sapiens) (UniProt P51812); details: Compound concentration 1000.0 nM

SMILES: CCOCCn1cc(C(=O)Nc2ccc(-n3nc(-c4cccnc4)cc3C(F)(F)F)cn2)ccc1=O [BI 1935]
- residual activity [1]: 100%
- residual activity [2]: 100%
- residual activity [3]: 100%
- residual activity [4]: 79%
- activity at 10 µM [5]: 94.5% (not active)
- residual activity [6]: 75%
- residual activity [7]: 81%
- residual activity [8]: 91%
- residual activity [9]: 87%
- residual activity [10]: 98%
- residual activity [11]: 83%
- residual activity [12]: 100%
- residual activity [13]: 100%
- residual activity [14]: 95%
- residual activity [15]: 96%
- residual activity [16]: 76%
- residual activity [17]: 96%
- residual activity [18]: 81%
- residual activity [19]: 99%
- residual activity [20]: 88%
- residual activity [21]: 79%
- residual activity [22]: 100%
- residual activity [23]: 98%
- residual activity [24]: 100%
- residual activity [25]: 77%
- residual activity [26]: 96%
- residual activity [27]: 80%
- residual activity [28]: 59%
- residual activity [29]: 98%
- residual activity [30]: 100%
- residual activity [31]: 77%
- residual activity [32]: 85%
- residual activity [33]: 100%
- residual activity [34]: 100%
- residual activity [35]: 84%
- residual activity [36]: 97%
- residual activity [37]: 79%
- residual activity [38]: 84%
